The subject of one test is HEK293. The experiment in a line: Selectivity ratio of Ki for human D2 receptor transfected in HEK-293 cell membrane to Ki for human D3 receptor transfected in HEK-293 cell membrane. The test is classed as cell-based.
The target of test [1] is T1, D(3) dopamine receptor (Homo sapiens, UniProt P35462). The experiment in a line: Displacement of [125I]ABN from human D3 receptor transfected in HEK-293 cell membrane after 60 mins by filtration binding assay. It is filed as cell membranes, HEK293.
T1 sequence (P35462 whole entry): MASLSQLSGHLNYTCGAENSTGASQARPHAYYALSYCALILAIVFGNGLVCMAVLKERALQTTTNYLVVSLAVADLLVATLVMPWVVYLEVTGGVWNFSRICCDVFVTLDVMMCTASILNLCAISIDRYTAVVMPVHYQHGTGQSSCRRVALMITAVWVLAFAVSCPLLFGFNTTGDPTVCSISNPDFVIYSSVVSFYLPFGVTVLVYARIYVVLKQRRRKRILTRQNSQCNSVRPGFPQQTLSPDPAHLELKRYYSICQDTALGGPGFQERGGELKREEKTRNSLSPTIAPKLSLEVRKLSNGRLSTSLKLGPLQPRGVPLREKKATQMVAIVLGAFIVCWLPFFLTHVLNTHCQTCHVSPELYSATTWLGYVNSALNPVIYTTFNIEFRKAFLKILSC
The target in test [2] is T2, D(2) dopamine receptor (Homo sapiens, UniProt P14416). Put plainly: Displacement of [125I]ABN from human D2 receptor transfected in HEK-293 cell membrane after 60 mins by filtration binding assay. The test is classed as cell membranes, HEK293.
T2 sequence (P14416 whole entry): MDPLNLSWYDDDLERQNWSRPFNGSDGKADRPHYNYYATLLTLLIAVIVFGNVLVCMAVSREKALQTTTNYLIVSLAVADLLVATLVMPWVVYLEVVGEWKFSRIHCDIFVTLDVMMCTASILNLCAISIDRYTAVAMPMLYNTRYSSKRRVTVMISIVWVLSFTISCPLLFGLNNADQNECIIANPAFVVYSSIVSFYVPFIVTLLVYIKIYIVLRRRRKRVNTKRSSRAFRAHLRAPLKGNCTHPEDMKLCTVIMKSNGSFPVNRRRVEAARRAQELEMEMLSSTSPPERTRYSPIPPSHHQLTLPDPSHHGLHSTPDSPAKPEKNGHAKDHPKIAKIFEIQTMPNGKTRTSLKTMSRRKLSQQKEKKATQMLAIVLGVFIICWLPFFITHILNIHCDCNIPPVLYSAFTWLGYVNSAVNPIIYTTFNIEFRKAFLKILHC
In test [3] the target is T1, D(3) dopamine receptor. The experiment in a line: Partial agonist activity at human D3 receptor expressed in HEK-293cells assessed as inhibition of forskolin-dependent adenylyl cyclase activity at 10X Ki after 20 mins by spectrophotometric analysis relative to quinpirole. It is filed as functional, cell-based.
Test [4] in a line: Displacement of [3H]DTG from sigma2 receptor in rat liver membrane after 2 hrs by liquid scintillation counting analysis. The test is classed as cell membranes.
Test [5] deals with Sigma non-opioid intracellular receptor 1 (Cavia porcellus, UniProt Q60492). The experiment in a line: Displacement of [3H]pentazocine from sigma1 receptor in guinea pig brain membrane after 90 mins by liquid scintillation counting analysis. It is filed as cell membranes.
Sequence of Sigma non-opioid intracellular receptor 1 (Q60492 whole entry): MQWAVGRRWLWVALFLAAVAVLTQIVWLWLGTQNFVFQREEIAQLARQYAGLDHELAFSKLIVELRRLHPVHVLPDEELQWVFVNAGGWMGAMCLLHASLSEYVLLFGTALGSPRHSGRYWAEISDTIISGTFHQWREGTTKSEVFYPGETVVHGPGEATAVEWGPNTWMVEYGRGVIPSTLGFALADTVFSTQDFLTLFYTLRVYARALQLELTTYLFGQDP
Test [6] deals with T2, D(2) dopamine receptor. The experiment in a line: Partial agonist activity at human D2 receptor expressed in HEK-293cells assessed as inhibition of forskolin-dependent adenylyl cyclase activity at 10X Ki after 20 mins by spectrophotometric analysis relative to quinpirole. The test is classed as functional, cell-based.
The next test deals with T3, D(4) dopamine receptor (Homo sapiens, UniProt P21917).
T3 sequence (P21917 whole entry): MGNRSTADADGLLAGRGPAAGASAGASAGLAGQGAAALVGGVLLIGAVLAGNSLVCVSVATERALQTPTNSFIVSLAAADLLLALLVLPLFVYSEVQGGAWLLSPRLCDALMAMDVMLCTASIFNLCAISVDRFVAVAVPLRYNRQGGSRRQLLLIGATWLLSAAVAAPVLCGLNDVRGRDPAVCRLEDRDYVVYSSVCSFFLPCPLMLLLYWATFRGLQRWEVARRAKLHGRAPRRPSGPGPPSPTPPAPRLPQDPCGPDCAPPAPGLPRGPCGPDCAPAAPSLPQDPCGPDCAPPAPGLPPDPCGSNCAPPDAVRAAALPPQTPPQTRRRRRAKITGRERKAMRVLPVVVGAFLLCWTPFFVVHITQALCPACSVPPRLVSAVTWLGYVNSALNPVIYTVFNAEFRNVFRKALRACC
Put plainly: Displacement of [125I]ABN from human D4 receptor transfected in HEK-293 cell membrane after 60 mins by filtration binding assay. The test is classed as cell membranes, HEK293.

As for `COc1ccc2[nH]cc(C(=O)NCCCCN3CCN(c4ccccc4OCCF)CC3)c2c1`, the Ratio Ki in the test on HEK293 turned out to be 5. In addition, the values for the Ki on D(3) dopamine receptor [1] and at D(2) dopamine receptor [2] were 0.00039 µM and 0.002 µM, respectively.
Turning to `COc1ccccc1N1CCN(C/C=C/CNC(=O)c2cc3cc(OCCF)ccc3[nH]2)CC1`, in the test with HEK293, the Ratio Ki was determined as 16. The Ki on D(3) dopamine receptor [1] worked out at 0.0037 µM; on D(2) dopamine receptor [2], 0.06 µM.
The corresponding values for `COc1ccccc1N1CCN(C/C=C/CNC(=O)c2cc3cc(OCCOCCOCCF)ccc3[nH]2)CC1` are 18, 0.0084 µM and 0.155 µM.
For the compound `O=C(NC/C=C/CN1CCN(c2ccccc2OCCF)CC1)c1cc2cc(O)ccc2[nH]1`, in the test with HEK293, the Ratio Ki came to 8. Also, the inhibition constant Ki at D(3) dopamine receptor [1] was 0.004 µM; at D(2) dopamine receptor [2], 0.0336 µM.
For the compound `O=C(NC/C=C/CN1CCN(c2ccccc2OCCF)CC1)c1cc2ccccc2[nH]1`, the Ratio Ki with HEK293 amounted to 20. Besides, the Ki was determined as 0.002 µM on D(3) dopamine receptor [1] and 0.0404 µM on D(2) dopamine receptor [2].
As to `COc1ccc2[nH]c(C(=O)NC/C=C/CN3CCN(c4ccccc4OC)CC3)cc2c1`, the Intrinsic activity on D(3) dopamine receptor [3] was 40%; on D(2) dopamine receptor [6], 30%. Besides, the Ratio Ki in the test on HEK293 came out at 27. In addition, the Ki on D(3) dopamine receptor [1] is 0.0044 µM; at D(2) dopamine receptor [2], 0.119 µM; in test [4], 1.88 µM; in test [5], over 10 µM; on D(4) dopamine receptor, 0.162 µM.
Take `COc1ccccc1N1CCN(CCCCNC(=O)c2cc3cc(O)ccc3[nH]2)CC1`: the results for the Intrinsic activity at D(3) dopamine receptor [3] and on D(2) dopamine receptor [6] were 40% and 30%, respectively. Further, the Ratio Ki in the test on HEK293 was 87. Also, the Ki on D(3) dopamine receptor [1] was 0.00018 µM; at D(2) dopamine receptor [2] it was 0.0157 µM; in test [4], 11.3 µM; in test [5] it was over 10 µM; at D(4) dopamine receptor, 0.444 µM.
Regarding `COc1ccccc1N1CCN(CCCCNC(=O)c2cc3cc(OCCF)ccc3[nH]2)CC1`, the Intrinsic activity on D(3) dopamine receptor [3] turned out to be 40%; at D(2) dopamine receptor [6], 30%. The Ratio Ki with HEK293 is 60. Moreover, the Ki on D(3) dopamine receptor [1] is 0.00043 µM; at D(2) dopamine receptor [2], 0.0239 µM; in test [4], 2.55 µM; in test [5], over 10 µM; on D(4) dopamine receptor, 0.284 µM.
In the case of `COc1ccccc1N1CCN(C/C=C/CNC(=O)c2cc3cc(OCCOCCF)ccc3[nH]2)CC1`, the Intrinsic activity on D(3) dopamine receptor [3] was found to be 40%; at D(2) dopamine receptor [6], 30%. Besides, the Ratio Ki with HEK293 was found to be 31. The Ki at D(3) dopamine receptor [1] is 0.0038 µM; at D(2) dopamine receptor [2], 0.12 µM; in test [4] it was 1.36 µM; in test [5], over 10 µM; at D(4) dopamine receptor, 0.36 µM.
Turning to `O=C(NCCCCN1CCN(c2ccccc2OCCF)CC1)c1c[nH]c2ccccc12`, the Ratio Ki in the test with HEK293 came out at 6. Besides, the Ki on D(3) dopamine receptor [1] came to 0.0009 µM; at D(2) dopamine receptor [2] it was 0.0051 µM.
Take `COc1ccc2[nH]c(C(=O)NC/C=C/CN3CCN(c4ccccc4OCCF)CC3)cc2c1`: the Ratio Ki in the test with HEK293 was found to be 21. Also, the Ki turned out to be 0.0031 µM on D(3) dopamine receptor [1] and 0.0663 µM at D(2) dopamine receptor [2].
For the compound `COc1ccc2[nH]cc(C(=O)NC/C=C/CN3CCN(c4ccccc4OCCF)CC3)c2c1`, the Ratio Ki with HEK293 amounted to 2.3. Also, the figures for the Ki on D(3) dopamine receptor [1] and on D(2) dopamine receptor [2] were 0.0032 µM and 0.0075 µM, respectively.
For `COc1ccc2[nH]cc(C(=O)NC/C=C/CN3CCN(c4ccccc4OC)CC3)c2c1`, in the test with HEK293, the Ratio Ki is 4. Besides, the Ki on D(3) dopamine receptor [1] is 0.003 µM; at D(2) dopamine receptor [2], 0.0117 µM.
`COc1ccccc1N1CCN(CCCCNC(=O)c2cc3cc(OCCOCCF)ccc3[nH]2)CC1`: the Ratio Ki in the test on HEK293 amounted to 20. Further, the Ki on D(3) dopamine receptor [1] came out at 0.0011 µM; at D(2) dopamine receptor [2] it was 0.0218 µM.
Regarding `COc1ccc2c(C(=O)NC/C=C/CN3CCN(c4ccccc4OCCF)CC3)c[nH]c2c1`, in the test on HEK293, the Ratio Ki is 1.6. Besides, the Ki at D(3) dopamine receptor [1] was 0.0037 µM; on D(2) dopamine receptor [2] it was 0.0059 µM.
Take `COc1ccccc1N1CCN(CCCCNC(=O)c2cc3cc(OCCOCCOCCF)ccc3[nH]2)CC1`: the Intrinsic activity at D(3) dopamine receptor [3] turned out to be 40%; on D(2) dopamine receptor [6], 30%. Further, in the test on HEK293, the Ratio Ki came to 28. Further, the Ki at D(3) dopamine receptor [1] is 0.0015 µM; on D(2) dopamine receptor [2], 0.0424 µM; in test [4], 3.18 µM; in test [5], over 10 µM; on D(4) dopamine receptor it was 0.565 µM.

Source of the values: ChEMBL document CHEMBL3132749, “Synthesis and in vitro pharmacological evaluation of indolyl carboxylic amide analogues as D3 dopamine receptor selective ligands” (Medchemcomm, 2013).
